ChEMBL document CHEMBL1201862, “PubChem BioAssay data set” (2004)
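Cultured in 96-well plates, cells were exposed to test compound for 48 hours across five concentrations. The concentration for 50% growth inhibition is given as GI50.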 Activity calls are given as the source filed them. No stated cut-off is given here; in the data, active = GI50 up to about 1.1 µM and inactive = higher.

Key:
Experiment in all cases: DTP human tumour cell line panel, 48 h
[1] = tested on: ACHN
[2] = tested on: DU-145
[3] = tested on: HCC 2998
[4] = tested on: HCT-116
[5] = tested on: HOP-92
[6] = tested on: HT-29
[7] = tested on: Hs-578T
[8] = tested on: MCF7
[9] = tested on: Malme-3M
[10] = tested on: NCI-H23
[11] = tested on: NCI-H460
[12] = tested on: NCI-H522
[13] = tested on: OVCAR-5
[14] = tested on: RXF 393
[15] = tested on: SF-539
[16] = tested on: SK-OV-3
[17] = tested on: SR
[18] = tested on: UACC-257
[19] = tested on: UACC-62

Measured: GI50

Clc1c2ncccc2cc2nn[nH]c12
inactive: [1] > 100 µM | [2] > 100 µM | [3] > 100 µM | [4] > 100 µM | [5] 54 µM | [6] > 100 µM | [7] 93.8 µM | [8] > 100 µM | [9] 79.3 µM | [10] > 100 µM | [11] 49.2 µM | [12] 33 µM | [13] 74.5 µM | [14] > 100 µM | [15] > 100 µM | [16] > 100 µM | [17] 23.3 µM | [18] > 100 µM | [19] > 100 µM

O=C(O)C1CSC2(CCCN(Cc3ccccc3)C2)N1 (stereo not drawn)
inactive: [1] > 100 µM | [2] > 100 µM | [3] > 100 µM | [4] > 100 µM | [5] > 100 µM | [6] > 100 µM | [7] > 100 µM | [8] > 100 µM | [9] > 100 µM | [10] > 100 µM | [11] > 100 µM | [12] > 100 µM | [13] > 100 µM | [14] > 100 µM | [15] > 100 µM | [16] > 100 µM | [17] 4.81 µM | [18] > 100 µM | [19] > 100 µM

COc1cccc(C2ON=C(c3ccccc3)N2C23CC4CC(CC(C4)C2)C3)c1 (stereo not drawn)
inactive: [1] > 10 µM | [2] > 10 µM | [3] > 10 µM | [4] > 10 µM | [5] > 10 µM | [6] > 10 µM | [7] > 10 µM | [8] > 10 µM | [9] > 10 µM | [10] > 10 µM | [11] > 10 µM | [12] > 10 µM | [13] > 10 µM | [14] > 10 µM | [15] > 10 µM | [16] > 10 µM | [17] 2.09 µM | [18] > 10 µM | [19] > 10 µM

COC(=O)/C=C\C(C#N)(C#N)/N=C/c1cc(Br)cs1
inactive: [1] 2.22 µM | [2] 7.31 µM | [3] 16 µM | [4] 1.76 µM | [5] 2.19 µM | [6] 1.94 µM | [7] 22.8 µM | [8] 1.51 µM | [9] 1.71 µM | [10] 5.33 µM | [11] 19.6 µM | [12] 1.5 µM | [13] 6.84 µM | [14] 2.27 µM | [15] 4.8 µM | [16] 19.5 µM | [17] 2.32 µM | [18] 2.67 µM | [19] 17.7 µM

COC1CC(O[C@H]2CC[C@@]3(C)[C@@H](CC[C@]4(O)[C@@H]3CC[C@]3(C)[C@@H](C(C)=O)[C@H](OC(=O)CC(C)C)[C@@H](OC(=O)c5ccccc5)[C@@]34O)C2)OC(C)C1OC1CC(OC)C(OC2OC(C)C(O)C(OC)C2O)C(C)O1 (stereo partly drawn)
inactive: [1] 24.4 µM | [2] > 25 µM | [3] 9.2 µM | [4] 10.4 µM | [5] 6.55 µM | [6] 11.9 µM | [7] 8.09 µM | [8] 11.4 µM | [9] 18.5 µM | [10] > 25 µM | [11] 9.53 µM | [12] 13.1 µM | [13] > 25 µM | [14] > 25 µM | [15] > 25 µM | [16] > 25 µM | [17] 11.3 µM | [18] > 25 µM

O=C1c2c(Br)sc(Br)c2[C@H]2NC(=S)O[C@@H]12
inactive: [1] 17.7 µM | [2] 16 µM | [3] 20.5 µM | [4] 10.7 µM | [5] 18 µM | [6] 14.5 µM | [7] 23.2 µM | [8] 16.1 µM | [9] 15.7 µM | [10] 14.8 µM | [11] 18.6 µM | [12] 1.86 µM | [13] 19.2 µM | [14] 13.3 µM | [15] 17.9 µM | [16] 18.7 µM | [17] 2.41 µM | [18] 16.8 µM | [19] 15.7 µM

CC1=C(C(=O)N[C@@H](CC(C)C)C(=O)O)N2C(=O)[C@@H](NC(=O)[C@@H](N)Cc3ccccc3)[C@H]2SC1
inactive: [1] > 100 µM | [2] > 100 µM | [3] > 100 µM | [5] > 100 µM | [7] > 100 µM | [8] > 100 µM | [9] > 100 µM | [11] > 100 µM | [12] > 100 µM | [13] > 100 µM | [14] > 100 µM | [15] > 100 µM | [17] > 100 µM | [18] > 100 µM | [19] > 100 µM
